# According to publication PMC5458052 (Nature Communications, 2017):
# What was measured:
# [1] = system: P. falciparum strain 3D7^0087/N9; parameters: method as in PMID 19596869; conditions: four consecutive daily doses; cited from earlier work
# [2] = system: P. falciparum lab lines FC27 and K1; experiment: microbe, parasite or virus in culture; format: cell-based; conditions: Plasmodium falciparum, median of 3 independent experiments
# [3] = system: P. falciparum strains (sensitive and resistant); experiment: microbe, parasite or virus in culture; format: cell-based; conditions: Plasmodium falciparum, mean ± SD n=3
# [4] = system: P. vivax clinical field isolates; experiment: microbe, parasite or virus in culture; format: cell-based; conditions: Plasmodium vivax, read-out: Median IC50
smiles,measurement,setting,value
"C[C@H]1[C@H](OC(=O)CCC(=O)O)O[C@@H]2O[C@@]3(C)CC[C@H]4[C@H](C)CC[C@@H]1[C@@]24OO3 [Artesunate, artesunate]",ED90,[1],10 mg/kg
same,IC50,"[2]; K1, FC27 (CQ S) lab line",3.6 nM
same,IC50,"[2]; K1, K1 (CQ R) lab line",5.1 nM
same,IC50,"[3]; DD2, strain Dd2 (chloroquine resistant)",5.4 ± 1.1 nM
same,IC50,"[3]; HB3, strain HB3 (chloroquine sensitive)",2.8 ± 0.6 nM
same,IC50,"[3]; NF54, strain NF54 (chloroquine sensitive)",4.7 ± 1 nM
same,IC50,[3]; strain 7G8 (chloroquine resistant),1.8 ± 0.4 nM
same,IC50,[3]; strain D6 (chloroquine sensitive),5.8 ± 1.2 nM
same,IC50,[3]; strain FCB (chloroquine resistant),5.8 ± 1.2 nM
same,IC50,[3]; strain K1 (chloroquine resistant),2.8 ± 0.6 nM
same,IC50,[3]; strain V1/S (chloroquine resistant),2.7 ± 0.6 nM
same,IC50,[4],0.8 nM
